Laboratory results reported in US9856262B2, “Analogues of 4H-pyrazolo[1,5-a] benzimidazole compound as PARP inhibitors” (HUBEI BIO-PHARMACEUTICAL INDUSTRIAL TECHNOLOGICAL INSTITUTE …, priority 2014, dated 2018).
pEC50, pIC50: −log10 of the molar value. Where two headings read alike, the source gives them in different places.

Columns and labels:
[1] = biological target: T1, PARP-1 (Homo sapiens, UniProt P09874); experiment: PARP enzymatic assay (HT Universal Colorimetric PARP1 Assay Kit); type: biochemical; settings: read-out: PARP-1 enzymatic inhibition IC50
T1 construct: purchased
T1 sequence (P09874 whole entry): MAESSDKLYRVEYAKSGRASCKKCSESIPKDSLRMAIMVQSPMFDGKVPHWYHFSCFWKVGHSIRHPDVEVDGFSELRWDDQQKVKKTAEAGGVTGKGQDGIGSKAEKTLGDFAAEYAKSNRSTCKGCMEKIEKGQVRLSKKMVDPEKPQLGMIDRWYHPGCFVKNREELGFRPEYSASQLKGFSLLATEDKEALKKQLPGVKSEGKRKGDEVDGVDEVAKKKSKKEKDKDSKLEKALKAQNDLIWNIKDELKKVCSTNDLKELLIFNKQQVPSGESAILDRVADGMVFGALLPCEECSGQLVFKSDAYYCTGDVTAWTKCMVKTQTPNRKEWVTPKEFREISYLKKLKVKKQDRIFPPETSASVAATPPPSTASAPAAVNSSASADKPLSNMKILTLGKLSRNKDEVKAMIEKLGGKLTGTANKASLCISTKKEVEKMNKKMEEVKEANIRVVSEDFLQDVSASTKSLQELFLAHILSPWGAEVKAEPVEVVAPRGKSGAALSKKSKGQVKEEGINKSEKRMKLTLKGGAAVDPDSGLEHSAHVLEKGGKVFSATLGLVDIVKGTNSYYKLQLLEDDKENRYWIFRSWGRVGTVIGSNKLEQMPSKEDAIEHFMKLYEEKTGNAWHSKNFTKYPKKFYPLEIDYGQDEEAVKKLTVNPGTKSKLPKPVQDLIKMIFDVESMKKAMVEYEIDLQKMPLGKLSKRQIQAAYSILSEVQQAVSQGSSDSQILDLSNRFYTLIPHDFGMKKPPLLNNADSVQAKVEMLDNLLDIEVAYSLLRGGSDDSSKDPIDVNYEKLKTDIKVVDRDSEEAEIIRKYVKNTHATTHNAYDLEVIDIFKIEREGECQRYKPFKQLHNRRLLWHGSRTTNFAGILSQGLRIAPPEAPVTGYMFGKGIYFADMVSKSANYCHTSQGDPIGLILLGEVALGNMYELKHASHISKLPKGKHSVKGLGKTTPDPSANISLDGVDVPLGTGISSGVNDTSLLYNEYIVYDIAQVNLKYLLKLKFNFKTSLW
Description: PARP Enzymatic Assay (Following the Manual of HT Universal Colorimetric PARP1 Assay Kit).
Histone proteins were coated on a 96-well plate and incubated overnight at 4° C. After be washed 3 times with 200 ul PBST solution, the plate was blocked with a blocking solution and incubated for 30 min at room temperature, and then washed with PBST solution 3 times. A compound to be tested was treated and added to the plate. Thereafter, 20 μl of diluted PARP1 (1 nM) or 20 μl of PARP2 (3 nM) solution was added into the reaction system and incubated for 1 or 2 hours. 50 ul of streptavidin-HRP mixture (1:50) was added into the plate and incubated for 30 min at room temperature. The plate was then washed with three times with PBST buffer. 100 μl of (HRP) (Chemiluminescent substrate A and substrate B (1:1)) was added into the plate, and the plate was immediately read on a microplate reader (Envision, PerkinElmer).

[2] = tested on: HCC1937 cells; experiment: Cellular PARylation assay; type: cell-based
Description: Cellular PARylation Assay
HCC1937 cells were planted into 96 well plates at 4×10^4 cells/well and incubated at 37° C. in an incubator overnight. After being treated with a test compound for 30 min, cells were then treated with 1 mM H2O2 for 10 min. The cells were washed with 200 ul pre-chilled PBS twice and fixed with 100 ul pre-chilled methanol/acetone (7:3) on ice for 30 min. After being air-dried, the plates were blocked using PBS-Tween blocking solution (0.05%) with dissolved 5% nonfat dry milk for 30 min at room temperature. The cells were incubated with anti-PAR antibody 10H (1:100) at room temperature for 1 hour followed by washing with PBS-Tween20 for 3 times; and then added into a blocking solution including goat anti-mouse fluorescein isothiocyanate (FITC)-coupled secondary antibody and 1 μg/mL DAPI to incubate away from light at room temperature for 1 hour. After being washed with PBS-Tween20 for 3 times, the plate was analyzed with a fluorescence microplate counter (Flexstation III, Molecular Device).

[3] = Homo sapiens, HCC1937 cells, compound 30 min then 1 mM H2O2 10 min, read-out: cellular PARylation EC50

pIC50 [1]	pEC50 [2, 3]	pEC50 ([2]; HCC1937 cells, compound 30 min then 1 mM H2O2 10 min, read-out: cellular PARylation EC50)	Structure (SMILES)	pEC50 ([2]; Homo sapiens, HCC1937, read-out: cellular PARylation EC50)
7.00 to 9.00	6.00 to 7.00		NC(=O)c1cc(F)cc2[nH]c3c(C4CC(O)CN4)cnn3c12 (stereo not drawn) [Example 36, 6-fluoro-3-(4-hydroxypyrrolidin-2-yl)-4H-benzo[4,5]imidazo[1,2-b]pyrazole-8-carboxamide]	
7.00 to 9.00	6.00 to 7.00		NC(=O)c1cc(F)cc2[nH]c3c(C4C5CNCC54)cnn3c12 (stereo not drawn) [Example 33, 3-(3-azabicyclo[3.1.0]hexan-6-yl)-6-fluoro-4H-benzo[4,5]imidazo[1,2-b]pyrazole-8-carboxamide]	
7.00 to 9.00	7.00 to 9.00		NC(=O)c1cc(F)cc2[nH]c3c(C4CCN(CCO)CC4)cnn3c12 [Example 16, 6-fluoro-3-(1-(2-hydroxyethyl)piperidin-4-yl)-4H-benzo[4,5]imidazo[1,2-b]pyrazole-8-carboxamide]	
7.00 to 9.00	< 6.00		N#Cc1cnn2c1[nH]c1cc(F)cc(C(N)=O)c12 [Example 37, 3-cyano-6-fluoro-4H-benzo[4,5]imidazo[1,2-b]pyrazole-8-carboxamide]	
7.00 to 9.00	7.00 to 9.00		CC(C)(F)CN1CCC(c2cnn3c2[nH]c2cc(F)cc(C(N)=O)c23)CC1 [Example 7, 6-fluoro-3-(1-(2-fluoro-2-methylpropyl)piperidin-4-yl)-4H-benzo[4,5]imidazo[1,2-b]pyrazole-8-carboxamide]	
7.00 to 9.00	7.00 to 9.00		CCN1CC2CC2(c2cnn3c2[nH]c2cc(F)cc(C(N)=O)c23)C1 (stereo not drawn) [Example 29, 3-(3-ethyl-3-azabicyclo[3.1.0]hexan-1-yl)-6-fluoro-4H-benzo[4,5]imidazo[1,2-b]pyrazole-8-carboxamide]	
7.00 to 9.00	7.00 to 9.00		CC1(c2cnn3c2[nH]c2cc(F)cc(C(N)=O)c23)CCN(CCC(F)(F)F)C1 (stereo not drawn) [Example 99, 6-fluoro-3-(3-methyl-1-(3,3,3-trifluoropropyl)pyrrolidin-3-yl)-4H-benzo[4,5]imidazo[1,2-b]pyrazole-8-carboxamide]	
7.00 to 9.00	7.00 to 9.00		CC(C)(O)CN1CCC(c2cnn3c2[nH]c2cc(F)cc(C(N)=O)c23)CC1 [Example 6, 6-fluoro-3-(1-(2-hydroxy-2-methylpropyl)piperidin-4-yl)-4H-benzo[4,5]imidazo[1,2-b]pyrazole-8-carboxamide]	
7.00 to 9.00	7.00 to 9.00		NC(=O)c1cc(F)cc2[nH]c3c(C45CC4CN(CC4CC4)C5)cnn3c12 (stereo not drawn) [Example 31, 3-(3-(cyclopropylmethyl)-3-azabicyclo[3.1.0]hexan-1-yl)-6-fluoro-4H-benzo[4,5]imidazo[1,2-b]pyrazole-8-carboxamide]	
7.00 to 9.00	6.00 to 7.00		CC1(c2cnn3c2[nH]c2cc(F)cc(C(N)=O)c23)CCN(S(C)(=O)=O)CC1 [Example 75, 6-fluoro-3-(4-methyl-1-(methylsulfonyl)piperidin-4-yl)-4H-benzo[4,5]imidazo[1,2-b]pyrazole-8-carboxamide]	
7.00 to 9.00	6.00 to 7.00		CCCN1CCCC1c1cnn2c1[nH]c1cc(F)cc(C(N)=O)c12 (stereo not drawn) [Example 24, 6-fluoro-3-(1-propylpyrrolidin-2-yl)-4H-benzo[4,5]imidazo[1,2-b]pyrazole-8-carboxamide]	
	7.00 to 9.00		NC(=O)c1cccc2cn(-c3ccc([C@@H]4CCCNC4)cc3)nc12 [MK-4827, niraparib, reference compound]	
7.00 to 9.00	7.00 to 9.00		NC(=O)c1cc(F)cc2[nH]c3c(C4CCN(CCF)CC4)cnn3c12 [Example 3, 6-fluoro-3-(1-(2-fluoroethyl)piperidin-4-yl)-4H-benzo[4,5]imidazo[1,2-b]pyrazole-8-carboxamide]	
7.00 to 9.00	7.00 to 9.00		CC(C)N1CC2CC2(c2cnn3c2[nH]c2cc(F)cc(C(N)=O)c23)C1 (stereo not drawn) [Example 32, 6-fluoro-3-(3-isopropyl-3-azabicyclo[3.1.0]hexan-1-yl)-4H-benzo[4,5]imidazo[1,2-b]pyrazole-8-carboxamide]	
7.00 to 9.00	7.00 to 9.00		CC1(c2cnn3c2[nH]c2cc(F)cc(C(N)=O)c23)CCN(CC2CC2)C1 (stereo not drawn) [Example 93, 3-(1-(cyclopropylmethyl)-3-methylpyrrolidin-3-yl)-6-fluoro-4H-benzo[4,5]imidazo[1,2-b]pyrazole-8-carboxamide]	
7.00 to 9.00	6.00 to 7.00		CCN1CCCC(c2cnn3c2[nH]c2cc(F)cc(C(N)=O)c23)C1 (stereo not drawn) [Example 17, 3-(1-ethylpiperidin-3-yl)-6-fluoro-4H-benzo[4,5]imidazo[1,2-b]pyrazole-8-carboxamide]	
7.00 to 9.00	6.00 to 7.00		CN1CCN(C(=O)c2cnn3c2[nH]c2cc(F)cc(C(N)=O)c23)CC1 [Example 49, 6-fluoro-3-(4-methylpiperazine-1-carbonyl)-4H-benzo[4,5]imidazo[1,2-b]pyrazole-8-carboxamide]	
7.00 to 9.00	6.00 to 7.00		CC1(c2cnn3c2[nH]c2cc(F)cc(C(N)=O)c23)CCN(CC(F)(F)F)C1 (stereo not drawn) [Example 97, 6-fluoro-3-(3-methyl-1-(2,2,2-trifluoroethyl)pyrrolidin-3-yl)-4H-benzo[4,5]imidazo[1,2-b]pyrazole-8-carboxamide]	
7.00 to 9.00	7.00 to 9.00		CCN1CCC(C)(c2cnn3c2[nH]c2cc(F)cc(C(N)=O)c23)C1 (stereo not drawn) [Example 90, 3-(1-ethyl-3-methylpyrrolidin-3-yl)-6-fluoro-4H-benzo[4,5]imidazo[1,2-b]pyrazole-8-carboxamide]	
		7.00 to 9.00	C[C@]1(c2nc3c(C(N)=O)cccc3[nH]2)CCCN1 [ABT-888, veliparib, reference compound]	
			Cn1ncnc1[C@H]1c2n[nH]c(=O)c3cc(F)cc(c23)N[C@@H]1c1ccc(F)cc1 [BMN-673, reference compound]	7.00 to 9.00

Structure (SMILES)	pIC50 [1]	pEC50 [2, 3]	pEC50 ([2]; HCC1937 cells, compound 30 min then 1 mM H2O2 10 min, read-out: cellular PARylation EC50)	pEC50 ([2]; Homo sapiens, HCC1937, read-out: cellular PARylation EC50)
CN1CC(CN2CCC(C)(c3cnn4c3[nH]c3cc(F)cc(C(N)=O)c34)CC2)C1 [Example 79, 6-fluoro-3-(4-methyl-1-((1-methylazetidin-3-yl)methyl)piperidin-4-yl)-4H-benzo[4,5]imidazo[1,2-b]pyrazole-8-carboxamide]	7.00 to 9.00	7.00 to 9.00		
CCN1C2CCC1CC(c1cnn3c1[nH]c1cc(F)cc(C(N)=O)c13)C2 (stereo not drawn) [Example 35, 3-(8-ethyl-8-azabicyclo[3.2.1]octan-3-yl)-6-fluoro-4H-benzo[4,5]imidazo[1,2-b]pyrazole-8-carboxamide]	7.00 to 9.00	6.00 to 7.00		
CCN1CCC(CN2CCC(C)(c3cnn4c3[nH]c3cc(F)cc(C(N)=O)c34)CC2)CC1 [Example 78, 3-(1-((1-ethylpiperidin-4-yl)methyl)-4-methylpiperidin-4-yl)-6-fluoro-4H-benzo[4,5]imidazo[1,2-b]pyrazole-8-carboxamide]	7.00 to 9.00	7.00 to 9.00		
CC1(c2cnn3c2[nH]c2cc(F)cc(C(N)=O)c23)CCN(CCS(C)(=O)=O)CC1 [Example 65, 6-fluoro-3-(4-methyl-1-(2-(methylsulfonyl)ethyl)piperidin-4-yl)-4H-benzo[4,5]imidazo[1,2-b]pyrazole-8-carboxamide]	7.00 to 9.00	7.00 to 9.00		
Cc1nn2c([nH]c3cc(F)cc(C(N)=O)c32)c1C1(C)CCN(CC2CC2)CC1 [Example 111, 3-(1-(cyclopropylmethyl)-4-methylpiperidin-4-yl)-6-fluoro-2-methyl-4H-benzo[4,5]imidazo[1,2-b]pyrazole-8-carboxamide]	7.00 to 9.00	7.00 to 9.00		
CC1(c2cnn3c2[nH]c2cc(F)cc(C(N)=O)c23)CCN(Cc2nccs2)CC1 [Example 74, 6-fluoro-3-(4-methyl-1-(thiazol-2-ylmethyl)piperidin-4-yl)-4H-benzo[4,5]imidazo[1,2-b]pyrazole-8-carboxamide]	7.00 to 9.00	6.00 to 7.00		
Cc1nn2c([nH]c3cc(F)cc(C(N)=O)c32)c1C1(C)CCN(CC(C)C)CC1 [Example 113, 6-fluoro-3-(1-isobutyl-4-methylpiperidin-4-yl)-2-methyl-4H-benzo[4,5]imidazo[1,2-b]pyrazole-8-carboxamide]	7.00 to 9.00	7.00 to 9.00		
NC(=O)c1cc(F)cc2[nH]c3c(C4(CO)CCN(CC5CC5)CC4)cnn3c12 [Example 109, 3-(1-(cyclopropylmethyl)-4-(hydroxymethyl)piperidin-4-yl)-6-fluoro-4H-benzo[4,5]imidazo[1,2-b]pyrazole-8-carboxamide]	7.00 to 9.00	6.00 to 7.00		
CC1(c2cnn3c2[nH]c2cc(F)cc(C(N)=O)c23)CCN(CC2(S(C)(=O)=O)CC2)CC1 [Example 73, 6-fluoro-3-(4-methyl-1-((1-(methylsulfonyl)cyclopropyl)methyl)piperidin-4-yl)-4H-benzo[4,5]imidazo[1,2-b]pyrazole-8-carboxamide]	7.00 to 9.00	7.00 to 9.00		
